Experimental data reported in paper PMC6025358 (Marine Drugs, 2018).

Molecular target: rat α3β4 nAChR (Rattus norvegicus, UniProt P04757+P12392)
Experiment: cell-based
Conditions: for inhibition at 0.1 µM / inhibition at 1 µM: read-out: Inhibition of ACh-evoked α3β4 nAChR-mediated current

Chain of rat α3β4 nAChR (P04757 26-499 limits assumed): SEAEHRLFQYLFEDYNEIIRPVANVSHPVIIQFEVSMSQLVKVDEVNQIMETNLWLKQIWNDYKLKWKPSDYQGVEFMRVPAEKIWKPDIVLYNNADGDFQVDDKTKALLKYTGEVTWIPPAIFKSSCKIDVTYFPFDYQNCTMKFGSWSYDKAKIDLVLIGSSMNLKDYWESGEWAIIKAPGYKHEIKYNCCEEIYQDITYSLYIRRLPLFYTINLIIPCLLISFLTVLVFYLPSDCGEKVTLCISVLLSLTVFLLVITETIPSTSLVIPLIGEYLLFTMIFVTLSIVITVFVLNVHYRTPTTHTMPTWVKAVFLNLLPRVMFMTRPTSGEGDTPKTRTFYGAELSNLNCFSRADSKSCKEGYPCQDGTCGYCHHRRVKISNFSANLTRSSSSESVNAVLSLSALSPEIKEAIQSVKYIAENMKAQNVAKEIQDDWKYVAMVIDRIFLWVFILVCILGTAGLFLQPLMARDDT
Chain of rat α3β4 nAChR (P12392 21-495 limits assumed): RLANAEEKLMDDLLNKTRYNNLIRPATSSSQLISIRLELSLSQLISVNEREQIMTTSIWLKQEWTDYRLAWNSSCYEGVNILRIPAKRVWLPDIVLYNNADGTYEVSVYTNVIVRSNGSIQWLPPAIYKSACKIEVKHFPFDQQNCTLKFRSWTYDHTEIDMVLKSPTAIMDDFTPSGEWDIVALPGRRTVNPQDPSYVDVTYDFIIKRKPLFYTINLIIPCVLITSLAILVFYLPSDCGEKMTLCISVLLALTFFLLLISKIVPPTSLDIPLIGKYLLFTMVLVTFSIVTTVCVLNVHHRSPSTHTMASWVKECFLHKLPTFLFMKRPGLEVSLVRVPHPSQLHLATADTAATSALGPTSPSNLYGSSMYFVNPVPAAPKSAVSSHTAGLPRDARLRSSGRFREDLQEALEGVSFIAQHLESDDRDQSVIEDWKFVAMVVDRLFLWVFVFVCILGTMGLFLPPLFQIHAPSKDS

Molecule `CC[C@H](C)[C@@H]1NC(=O)[C@@H]2CCCN2C(=O)[C@H](CO)NC(=O)[C@H](CC[S+](C)[O-])NC(=O)[C@H](C)NC(=O)[C@H](CO)NC(=O)[C@@H]2CSSC[C@H](NC(=O)CN)C(=O)N[C@@H](CSSC[C@@H](C(N)=O)NC1=O)C(=O)N[C@@H](CO)C(=O)N[C@@H](Cc1c[nH]cn1)C(=O)N1CCC[C@H]1C(=O)N[C@@H](C(C)C)C(=O)N2` (some centres unmarked) [[MO]TxID] has an IC50 of 245 nM, an inhibition at 0.1 µM of 25% and an inhibition at 1 µM of 72%.

In the case of `CC[C@H](C)[C@@H]1NC(=O)[C@@H]2CCCN2C(=O)[C@H](CO)NC(=O)[C@H](CCSC)NC(=O)[C@H](C)NC(=O)[C@H](CO)NC(=O)[C@@H]2CSSC[C@H](NC(=O)CN)C(=O)N[C@@H](CSSC[C@@H](C(N)=O)NC1=O)C(=O)N[C@@H](CO)C(=O)N[C@@H](Cc1c[nH]cn1)C(=O)N1CCC[C@H]1C(=O)N[C@@H](C(C)C)C(=O)N2` [TxID], the inhibition at 0.1 µM is reported as about 80% and the inhibition at 1 µM is reported as about 100%.
